# Assay results from US20250213561A1, “SELECTIVE HYPOTHALAMUS PERMEABLE HDAC6 INHIBITORS FOR TREATMENT OF LEPTIN-RESISTANT OBESITY” (The Children’s Medical Center Corporation, priority 2022, published 2025).
# Entries after “also recorded” stand apart in the source; their conditions may differ.
# What was measured:
# HDAC6 = assay: Ac-tubulin immunoblotting in HEK293 cells; type: cell-based
# DIO mice = assay: Acute leptin co-treatment in DIO mice (body weight, food intake 15 h); type: in vivo; details: for body weight, leptin after pre-treatment with inhibitor: 3 days pre-treatment
# Description: DIO mice were pretreated with ACY775 (10 mg/kg/day, i.p.) or vehicle for 3 days, which was followed by co-treatment with ACY775 (or vehicle) and leptin (1 mg/kg, i.p.) (or saline) (n=9 for each group), % change in body weight 15 h after leptin treatment, food intake (g) during the 15 h period after leptin treatment. The results in were reproduced in two independent experiments.
# Diet induced obese (DIO) mice were pretreated with ACY775 (10 mg/kg/day, i.p.) or vehicle for 3 days, which was followed by co-treatment with ACY775 (or vehicle) and leptin (1 mg/kg, i.p.) (or saline) (n=9 for each group). Mice were evaluated for % change in body weight 15 h after leptin treatment, and food intake (g) during the 15 h period after leptin treatment.
# DIO mice were pretreated with ricolinostat (25 mg/kg/day, i.p.) or vehicle for 3 days, which was followed by co-treatment with ricolinostat (or vehicle) and leptin (1 mg/kg, i.p.) (or saline) (n=32 for each group). Change in body weight 15 h after leptin treatment, and food intake (g) during the 15 h period after leptin treatment were determined. The results were reproduced in two independent experiments.
# p-STAT3^Tyr705 = assay: Leptin-stimulated hypothalamic STAT3 Tyr705 phosphorylation in DIO mice; type: in vivo; details: 45 minutes after leptin 1 mg/kg i.p.
# Description: DIO mice were pretreated with ACY775 (10 mg/kg/day, i.p.) or vehicle for 3 days, which was followed by a last injection of ACY775 (or vehicle) in the morning of fourth day. 6 hours later mice were injected with saline or leptin (1 mg/kg, i.p.) and hypothalamus were extracted after 45 minutes following the leptin injection. Representative immunoblots for STAT3^Tyr705 phosphorylation and total STAT3 from the hypothalamus. Quantification of the ratio of p-STAT3^Tyr705 to total-STAT3 signal in the immunoblots. The results were reproduced in three independent experiments. The results were analyzed hourly.
# DIO mice were pretreated with ACY775 (10 mg/kg/day, i.p.) or vehicle for 3 days, which was followed by a last injection of ACY775 (or vehicle) in the morning of fourth day. 6 hours later mice were injected with saline or leptin (1 mg/kg, i.p.) and the hypothalamus were extracted after 45 minutes following the leptin injection.
# 6 hours later mice were injected with saline or leptin (1 mg/kg, i.p.) and hypothalamus were extracted after 45 minutes following the leptin injection. Immunoblots for STAT3^Tyr705 phosphorylation and total STAT3 from the hypothalamus were made to quantify the ratio of p-STAT3^Tyr705 to total-STAT3 signal in the immunoblots. The results were reproduced in two independent experiments.
# DIO mice were pretreated with ricolinostat (50 mg/kg/day, i.p.) or vehicle 3 days, which was followed by a last injection of ricolinostat (or vehicle) in the morning of fourth day. 6 hours later mice were injected with saline or leptin (1 mg/kg, i.p.) and the hypothalamus were extracted after 45 minutes following the leptin injection. Immunoblots were performed for STAT3^Tyr705 phosphorylation and total STAT3 from the hypothalamus. The ratio of p-STAT3^Tyr705 to total STAT3 signal in the immunoblots was quantified.
# DMH neurons = assay: c-Fos immunostaining in DMH of DIO mice; type: in vivo; details: fasting, acute 10 mg/kg i.p.
# Description: Following the bilateral injection of AAV-sgHDAC6 into the arcuate nucleus of Agrp-ires-cre::LSL-Cas9-GFP (Agrp-Cre^+/−::Cas9^+/−) or control LSL-Cas9-GFP (Cas9^+/−) mice, immunostaining to detect the expression of mCherry and GFP was performed. AAV-sg-HDAC6 injected Agrp-Cre^+/−::Cas9^+/− (HDAC6^Agrp-Δ) and Cas9^+/−(HDAC6^WT) DIO mice (n=7 for each group) were fasted for 24 hours, and injected with ACY775 (10 mg/kg. i.p). Hourly total dark cycle food intake (g) (n=7 for each group) of these mice after ACY775 injection was measured. Body weight of AAV-sg-HDAC6 injected HDAC6^Agrp-Δ (n=11) and HDAC6^WT (n=6) mice were measured during 3 weeks of ACY775 (10 mg/kg/day, i.p.) treatment. Daily average food intake of HDAC6^Agrp-Δ (n=11) and HDAC6^WT (n=6) mice was measured during 3 weeks of ACY775 (10 mg/kg/day, i.p.) treatment. 24-hour food intake average of HDAC6^Agrp-Δ and HDAC6^WT mice during the 3 weeks of ACY775 treatment was assessed. Serum leptin level (ng/ml) of HDAC6^Agrp-Δ and HDAC6^WT mice after 2 weeks of ACY775 treatment (n=13 for HDAC6^WT and n=18 for HDAC6^Agrp-Δ) was measured. Lean mass (g); fat mass; and fat percentage (%) of HDAC6^Agrp-Δ and HDAC6^WT DIO mice after 3 weeks of ACY775 treatment was measured by DEXA scan. The HDAC6 inhibitor responsive neurons in the dorsomedial hypothalamus (DMH) were assessed. […]
# [1] = tested on: ACY775-responsive DMH neurons; assay: Caspase3 ablation of ACY775-responsive DMH neurons in TRAP2 DIO mice; type: in vivo
# Description: Whether the activity of ACY775-responsive DMH neurons could be involved in the food intake and bodyweight reducing activity of HDAC6 inhibitors was investigated as a possible second order of neurons to AgRP^ARC neurons. These neurons were ablated to investigate the necessity of these neurons in mediating the ACY775's anti-obesity effects. AAV-flex-taCasp3-TEVp was injected into the DMH of TRAP2 DIO mice, and then the mice were injected with a single dose of ACY775 and 4-OHT to ablate these neurons through caspase3 protein activation. To make sure that this experimental system worked, the existence of ACY775-responsive DMH neurons was verified by c-fos staining after injection of a second dose of ACY775. This experimental method predicts that caspase 3, when activated by administration of the first dose of ACY775 in conjugation with 4-OHT injection, will lead to ablation of ACY775-responsive DMH neurons, and diminish the c-fos signals that would otherwise be created by the second dose of ACY775.
# [2] = leptin 1 mg/kg i.p., 15 h period
Structure (SMILES),tubulin acetylation (HDAC6 inhibitor activity in cells) (HDAC6),"body weight, leptin after pre-treatment with inhibitor (DIO mice; leptin 1 mg/kg i.p., 15 h)","food intake, leptin together with inhibitor (DIO mice; [2])",leptin-stimulated hypothalamic p-STAT3^Tyr705 (p-STAT3^Tyr705),"body weight, agent alone (DIO mice; 15 h, ACY775 10 mg/kg, ricolinostat 25 mg/kg, leptin 1 mg/kg i.p.)","food intake, agent alone (DIO mice; 15 h period)",c-fos positive cell number in the DMH (DMH neurons),"body weight and food consumption, chronic ([1]; 10 mg/kg/day i.p.)",blood glucose levels ([1]; caspase3^on-DMH versus caspase3^off-DMH),"food intake in fasted mice ([1]; caspase3^on-DMH versus caspase3^off-DMH, 10 mg/kg i.p.)"
O=C(NO)c1cnc(NC2(c3ccccc3)CC2)nc1 [ACY738],inhibits the HDAC6 activity,significantly augmented the acute leptin-induced reduction in body weight and food intake,significantly augmented the acute leptin-induced reduction in body weight and food intake,substantially increased,–,–,–,–,–,–
"O=C(NO)c1cnc(NC2(c3cccc(F)c3)CCCCC2)nc1 [ACY775, 2-[[1-(3-fluorophenyl)cyclohexyl]amino]-N-hydroxy-5-pyrimidinecarboxamide]",increases tubulin acetylation,further reduction in bodyweight,further augmented the negative effect of leptin on food intake,increased significantly,significantly decreased the bodyweight,reduced the food intake,major increase in c-fos positive cell number,neither reduced the body weight nor the food consumption in caspase3^on-DMH mice; also recorded: did reduce the food intake and bodyweight in caspase3^off-DMH mice,significantly higher in caspase3^on-DMH mice,significantly higher than caspase3^off-DMH mice
